± gives the standard deviation of the averaged measurements.
Columns and labels:
CABOZANTINIB = compound: COc1cc2nccc(Oc3ccc(NC(=O)C4(C(=O)Nc5ccc(F)cc5)CC4)cc3)c2cc1OC [CABOZANTINIB]; test: surviving fraction relative to DMSO-only wells; higher = less growth inhibition; settings: exposure time: 5 days
Method in brief: (§1)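 Surviving fraction is CellTiter-Glo luminescence divided by the median of wells given DMSO only. For this, log-phase tumour cell lines went into 384-well plates at 250–500 cells per well and, 24 hours later, into five days of continuous inhibitor exposure at 0.5, 1, 5, 10, 50, 100, 500 and 1000 nM. Lines were screened three times and retained only if replicate Pearson r >0.7 and median Z' >0.3.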

LENVATINIB = compound: COc1cc2nccc(Oc3ccc(NC(=O)NC4CC4)c(Cl)c3)c2cc1C(N)=O [LENVATINIB]; test: as above; settings: exposure time: 5 days
Method in brief: as §1

Test System	surviving fraction (CABOZANTINIB; 0.5 nM)	surviving fraction (CABOZANTINIB; 1 nM)	surviving fraction (CABOZANTINIB; 5 nM)	surviving fraction (CABOZANTINIB; 10 nM)	surviving fraction (CABOZANTINIB; 50 nM)	surviving fraction (CABOZANTINIB; 100 nM)	surviving fraction (CABOZANTINIB; 500 nM)	surviving fraction (CABOZANTINIB; 1000 nM)	surviving fraction (LENVATINIB; 0.5 nM)	surviving fraction (LENVATINIB; 1 nM)	surviving fraction (LENVATINIB; 5 nM)	surviving fraction (LENVATINIB; 10 nM)	surviving fraction (LENVATINIB; 50 nM)	surviving fraction (LENVATINIB; 100 nM)	surviving fraction (LENVATINIB; 500 nM)	surviving fraction (LENVATINIB; 1000 nM)
MCF7 BREAST	0.907 ± 0.019	0.836 ± 0.012	0.852 ± 0.029	0.863 ± 0.033	0.889 ± 0.015	0.933 ± 0.032	0.88 ± 0.066	0.91 ± 0.075	0.954 ± 0.061	0.903 ± 0.056	0.954 ± 0.059	0.931 ± 0.076	0.971 ± 0.034	0.978 ± 0.11	0.942 ± 0.03	0.934 ± 0.073
SUM44 BREAST	1.21 ± 0.32	1.18 ± 0.3	1.24 ± 0.24	1.21 ± 0.23	1.36 ± 0.4	1.3 ± 0.35	1.2 ± 0.33	1.27 ± 0.39	1.01 ± 0.06	1.03 ± 0.054	1.03 ± 0.048	1.04 ± 0.018	1.05 ± 0.044	1.07 ± 0.052	1.03 ± 0.029	1.01 ± 0.015
SIHA CERVIX	0.857 ± 0.073	0.835 ± 0.051	0.979 ± 0.02	0.918 ± 0.017	0.988 ± 0.024	0.929 ± 0.038	0.737 ± 0.032	0.68 ± 0.033	1.07 ± 0.016	1.1 ± 0.04	1.12 ± 0.049	1.11 ± 0.085	1.2 ± 0.14	1.18 ± 0.05	1.04 ± 0.13	0.97 ± 0.035
KPD BONE	0.914 ± 0.031	0.985 ± 0.02	1.1 ± 0.045	1.04 ± 0.028	1.05 ± 0.036	1.03 ± 0.045	0.997 ± 0.068	0.956 ± 0.047	1 ± 0.019	0.99 ± 0.067	1.01 ± 0.078	1.01 ± 0.093	1 ± 0.11	1.02 ± 0.11	0.948 ± 0.03	0.814 ± 0.037
HUO3N1 BONE	1.05 ± 0.034	1.05 ± 0.066	1.02 ± 0.025	0.953 ± 0.0036	0.916 ± 0.014	0.861 ± 0.021	0.742 ± 0.07	0.666 ± 0.008	1.05 ± 0.057	1.04 ± 0.058	1.03 ± 0.013	0.961 ± 0.053	0.967 ± 0.034	0.876 ± 0.018	0.764 ± 0.0072	0.676 ± 0.051
YAMATO SYNOVIAL	1.19 ± 0.048	1.16 ± 0.076	1.11 ± 0.04	1.01 ± 0.028	0.826 ± 0.044	0.678 ± 0.018	0.374 ± 0.0056	0.373 ± 0.02	1.18 ± 0.073	1.15 ± 0.05	1.13 ± 0.12	1.06 ± 0.072	1.1 ± 0.062	1.14 ± 0.13	0.953 ± 0.08	0.949 ± 0.017
ASKA SYNOVIAL	1.09 ± 0.049	1.1 ± 0.062	1.13 ± 0.11	1.18 ± 0.029	1.08 ± 0.04	1.2 ± 0.03	1.1 ± 0.1	1.03 ± 0.029	1.12 ± 0.063	1.04 ± 0.045	1.13 ± 0.082	1.12 ± 0.1	1.19 ± 0.11	1.21 ± 0.024	1.09 ± 0.044	1.04 ± 0.041
MDAMB436 BREAST	0.95 ± 0.067	0.94 ± 0.04	1 ± 0.17	0.973 ± 0.029	1.04 ± 0.096	0.951 ± 0.097	1.04 ± 0.058	1.02 ± 0.11	0.949 ± 0.032	1.01 ± 0.11	0.946 ± 0.04	0.976 ± 0.039	1.01 ± 0.11	0.907 ± 0.015	1.04 ± 0.077	0.932 ± 0.033
A549 LUNG	1.03 ± 0.016	0.976 ± 0.028	0.977 ± 0.022	0.98 ± 0.012	1.01 ± 0.02	1.01 ± 0.03	0.994 ± 0.021	0.97 ± 0.029	1.04 ± 0.067	1.03 ± 0.053	1.04 ± 0.053	1.04 ± 0.061	1.06 ± 0.087	1.03 ± 0.044	1.13 ± 0.073	1.12 ± 0.025
PCI30 HEADNECK	0.86 ± 0.039	0.864 ± 0.05	0.954 ± 0.066	1.07 ± 0.048	1 ± 0.019	1.03 ± 0.057	0.841 ± 0.036	0.84 ± 0.15	0.998 ± 0.031	1.08 ± 0.06	1.06 ± 0.082	1.07 ± 0.057	1.14 ± 0.084	1.11 ± 0.08	1.11 ± 0.073	1.17 ± 0.06
